# Activity calls are given as the source filed them. No cut-off for these calls is given here.
# How the values were obtained:
# [1] = target: DNA (cytosine-5)-methyltransferase 1 (Homo sapiens) (UniProt P26358); test: Inhibition of DNMT1 (unknown origin) at 100 uM using poly(dI-dC).poly(dI-dC) as substrate preincubated for 15 mins followed by substrate/[3H]-SAM addition measured after 120 mins by liquid scintillation counting analysis
# [2] = target: DNMT3A2/3L complex (Homo sapiens) (UniProt Q9Y6K1+Q9UJW3); test: Inhibition of DNMT3A/3L (unknown origin) at 100 uM using biotinylated DNA oligonucleotides as substrate preincubated for 15 mins followed by substrate/[3H]-SAM addition measured after 4 hrs by liquid scintillation counting analysis; type: protein-complex assay
# DNMT3A2/3L complex (Homo sapiens), sequence (Q9UJW3 whole entry, looked up): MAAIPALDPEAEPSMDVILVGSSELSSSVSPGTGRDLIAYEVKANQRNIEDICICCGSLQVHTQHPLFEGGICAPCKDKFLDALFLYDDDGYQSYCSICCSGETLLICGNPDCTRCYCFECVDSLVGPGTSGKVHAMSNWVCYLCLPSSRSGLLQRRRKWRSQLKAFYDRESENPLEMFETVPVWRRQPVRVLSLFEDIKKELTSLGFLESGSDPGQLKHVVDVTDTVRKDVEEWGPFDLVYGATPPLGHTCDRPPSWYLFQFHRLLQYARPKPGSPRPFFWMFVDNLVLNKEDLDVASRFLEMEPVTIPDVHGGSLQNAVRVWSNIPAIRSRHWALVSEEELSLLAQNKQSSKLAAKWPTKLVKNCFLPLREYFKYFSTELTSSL
# DNMT3A2/3L complex (Homo sapiens), sequence (Q9Y6K1 whole entry, looked up): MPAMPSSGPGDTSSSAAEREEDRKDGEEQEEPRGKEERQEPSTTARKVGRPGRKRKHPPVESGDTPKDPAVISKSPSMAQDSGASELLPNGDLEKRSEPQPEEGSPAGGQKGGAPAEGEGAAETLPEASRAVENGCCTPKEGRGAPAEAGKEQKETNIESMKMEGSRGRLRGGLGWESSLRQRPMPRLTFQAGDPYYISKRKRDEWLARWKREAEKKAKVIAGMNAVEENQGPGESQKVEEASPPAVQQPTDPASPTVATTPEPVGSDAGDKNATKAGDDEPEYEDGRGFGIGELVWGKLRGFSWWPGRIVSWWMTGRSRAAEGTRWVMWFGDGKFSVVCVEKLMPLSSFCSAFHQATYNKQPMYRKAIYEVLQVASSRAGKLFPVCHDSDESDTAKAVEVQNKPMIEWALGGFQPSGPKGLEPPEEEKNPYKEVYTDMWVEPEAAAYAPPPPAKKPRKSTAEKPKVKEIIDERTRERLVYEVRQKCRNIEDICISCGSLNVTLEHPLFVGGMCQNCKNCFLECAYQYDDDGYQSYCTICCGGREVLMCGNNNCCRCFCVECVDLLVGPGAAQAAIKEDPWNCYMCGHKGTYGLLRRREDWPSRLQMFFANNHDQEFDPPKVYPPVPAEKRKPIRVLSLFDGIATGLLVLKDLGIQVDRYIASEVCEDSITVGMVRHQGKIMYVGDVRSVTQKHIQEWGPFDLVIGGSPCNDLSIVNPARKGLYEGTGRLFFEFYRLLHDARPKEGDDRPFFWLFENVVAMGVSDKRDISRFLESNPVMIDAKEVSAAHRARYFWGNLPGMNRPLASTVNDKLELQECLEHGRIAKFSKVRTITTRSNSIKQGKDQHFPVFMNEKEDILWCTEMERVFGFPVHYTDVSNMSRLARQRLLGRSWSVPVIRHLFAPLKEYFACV
# [3] = target: DNMT3B-DNMT3L complex (Homo sapiens) (UniProt Q9UBC3+Q9UJW3); test: Inhibition of DNMT3B/3L (unknown origin) at 100 uM using biotinylated DNA oligonucleotides as substrate preincubated for 15 mins followed by substrate/[3H]-SAM addition measured after 4 hrs by liquid scintillation counting analysis; type: protein-complex assay
# DNMT3B-DNMT3L complex (Homo sapiens), sequence (Q9UJW3 whole entry, looked up, other chains not shown): as the sequence (Q9UJW3 whole entry, looked up) above
# Histone deacetylase 1 = Histone deacetylase 1 (Homo sapiens, UniProt Q13547); test: Inhibition of HDAC1 (unknown origin) preincubated for 15 mins followed by substrate addition measured after 60 mins by fluorescence assay
# Histone deacetylase 1, sequence (Q13547 whole entry): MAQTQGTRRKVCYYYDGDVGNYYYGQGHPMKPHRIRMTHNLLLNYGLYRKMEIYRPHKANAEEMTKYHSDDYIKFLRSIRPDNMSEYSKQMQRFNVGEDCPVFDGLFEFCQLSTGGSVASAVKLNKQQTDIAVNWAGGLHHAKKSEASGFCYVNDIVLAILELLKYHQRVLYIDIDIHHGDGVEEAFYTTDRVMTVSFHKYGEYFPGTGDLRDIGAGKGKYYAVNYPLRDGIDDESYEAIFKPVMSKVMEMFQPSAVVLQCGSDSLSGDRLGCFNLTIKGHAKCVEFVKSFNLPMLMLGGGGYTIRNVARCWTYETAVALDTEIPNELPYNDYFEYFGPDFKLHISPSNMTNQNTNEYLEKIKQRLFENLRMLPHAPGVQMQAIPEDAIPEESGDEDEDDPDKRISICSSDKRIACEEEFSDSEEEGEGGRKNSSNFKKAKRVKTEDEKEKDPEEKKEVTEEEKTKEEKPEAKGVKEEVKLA
# [4] = target: T1, Protein deacetylase HDAC6 (Homo sapiens, UniProt Q9UBN7); test: Inhibition of HDAC6 (unknown origin) preincubated for 15 mins followed by substrate addition measured after 60 mins by fluorescence assay
# T1 sequence (Q9UBN7 whole entry): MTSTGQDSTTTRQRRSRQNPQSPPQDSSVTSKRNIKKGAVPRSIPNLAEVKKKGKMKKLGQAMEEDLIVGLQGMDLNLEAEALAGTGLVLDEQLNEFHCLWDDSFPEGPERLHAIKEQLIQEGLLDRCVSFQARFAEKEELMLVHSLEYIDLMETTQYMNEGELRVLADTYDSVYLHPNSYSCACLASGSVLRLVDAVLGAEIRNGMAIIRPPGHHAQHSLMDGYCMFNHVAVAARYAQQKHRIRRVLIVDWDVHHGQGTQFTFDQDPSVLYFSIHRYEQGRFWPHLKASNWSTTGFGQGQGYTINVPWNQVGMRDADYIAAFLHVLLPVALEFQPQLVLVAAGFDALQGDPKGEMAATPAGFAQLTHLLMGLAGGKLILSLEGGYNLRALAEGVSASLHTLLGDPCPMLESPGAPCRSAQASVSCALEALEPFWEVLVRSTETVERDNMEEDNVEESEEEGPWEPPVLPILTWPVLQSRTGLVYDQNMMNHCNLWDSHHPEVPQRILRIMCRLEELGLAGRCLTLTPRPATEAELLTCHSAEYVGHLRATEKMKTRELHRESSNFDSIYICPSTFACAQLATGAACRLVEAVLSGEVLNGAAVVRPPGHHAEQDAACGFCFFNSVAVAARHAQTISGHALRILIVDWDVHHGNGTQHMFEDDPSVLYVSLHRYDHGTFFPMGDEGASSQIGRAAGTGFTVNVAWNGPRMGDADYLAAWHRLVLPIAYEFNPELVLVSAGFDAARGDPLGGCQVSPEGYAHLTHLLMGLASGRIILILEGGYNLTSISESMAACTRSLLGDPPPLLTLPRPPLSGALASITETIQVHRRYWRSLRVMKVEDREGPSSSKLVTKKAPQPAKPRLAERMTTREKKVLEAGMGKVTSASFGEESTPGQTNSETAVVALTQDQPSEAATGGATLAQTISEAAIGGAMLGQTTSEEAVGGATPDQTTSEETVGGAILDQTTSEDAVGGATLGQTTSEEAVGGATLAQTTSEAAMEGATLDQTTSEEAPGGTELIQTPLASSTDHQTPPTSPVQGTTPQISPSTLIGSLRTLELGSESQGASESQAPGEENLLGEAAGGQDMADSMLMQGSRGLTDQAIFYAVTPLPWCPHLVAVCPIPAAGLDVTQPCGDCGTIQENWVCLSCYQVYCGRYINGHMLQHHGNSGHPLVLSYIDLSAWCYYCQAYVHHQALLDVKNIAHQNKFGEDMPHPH
# K562 = test: Antiproliferative activity against human K562 cells after 72 hrs by MTT assay; type: functional, cell-based; settings: K562, 72 h
# U-937 [5] = test: Antiproliferative activity against human U937 cells after 72 hrs by MTT assay; type: functional, cell-based; settings: U-937, 72 h
# U-937 [6] = test: Induction of apoptosis in human U937 cells assessed as necrotic cells at 2.5 uM after 48 hrs by Annexin V-FITC/PI staining based flow cytometry (reference value: 0%); type: functional
# Homo sapiens [7] = species: Homo sapiens; test: Inhibition of HDAC in human U937 cells assessed as induction of histone H3K9 acetylation after 12 hrs by Western blot analysis; type: cell-based
# Homo sapiens [8] = species: Homo sapiens; test: Inhibition of HDAC in human U937 cells assessed as induction of histone H4K8 acetylation after 12 hrs by Western blot analysis; type: cell-based
# [9] = target: DNA (cytosine-5)-methyltransferase 1 (Homo sapiens) (UniProt P26358); test: Inhibition of DNMT1 in human U937 cells assessed as increase in P16INK4A expression level at 1 to 5 uM after 36 hrs by Western blot analysis; type: cell-based
# Homo sapiens [10] = species: Homo sapiens; test: Inhibition of DNMT in human U937 cells assessed as induction of P16 CpG islands demethylation at 1 to 2.5 uM after 36 hrs by PCR analysis; type: cell-based
# U-937 [11] = test: Induction of apoptosis in human U937 cells assessed as increase in cleaved caspase-3 level at 1 to 5 uM after 36 hrs by Western blot analysis; type: functional, cell-based
# U-937 [12] = test: Induction of apoptosis in human U937 cells assessed as increase in cleaved PARP expression at 1 to 5 uM after 36 hrs by Western blot analysis; type: functional, cell-based
# U-937 [13] = test: Induction of apoptosis in human U937 cells assessed as increase in PARP expression at 1 to 5 uM after 36 hrs by Western blot analysis; type: functional, cell-based
# U-937 [14] = test: Induction of apoptosis in human U937 cells assessed as viable cells at 2.5 uM after 48 hrs by Annexin V-FITC/PI staining based flow cytometry (reference value: 99.4%); type: functional; settings: U-937, 48 h, read-out: Activity
# U-937 [15] = test: Induction of apoptosis in human U937 cells assessed as early apoptotic cells at 2.5 uM after 48 hrs by Annexin V-FITC/PI staining based flow cytometry (reference value: 0.162%); type: functional
# U-937 [16] = test: Induction of apoptosis in human U937 cells assessed as late apoptotic cells at 2.5 uM after 48 hrs by Annexin V-FITC/PI staining based flow cytometry (reference value: 0.438%); type: functional
# U-937 [17] = test: Induction of apoptosis in human U937 cells assessed as viable cells at 5 uM after 48 hrs by Annexin V-FITC/PI staining based flow cytometry (reference value: 99.4%); type: functional; settings: U-937, 48 h, read-out: Activity
# U-937 [18] = test: Induction of apoptosis in human U937 cells assessed as early apoptotic cells at 5 uM after 48 hrs by Annexin V-FITC/PI staining based flow cytometry (reference value: 0.162%); type: functional
# U-937 [19] = test: Induction of apoptosis in human U937 cells assessed as late apoptotic cells at 5 uM after 48 hrs by Annexin V-FITC/PI staining based flow cytometry (reference value: 0.438%); type: functional
# U-937 [20] = test: Induction of apoptosis in human U937 cells assessed as necrotic cells at 5 uM after 48 hrs by Annexin V-FITC/PI staining based flow cytometry (reference value: 0%); type: functional
# U-937 [21] = test: Induction of apoptosis in human U937 cells assessed as viable cells at 10 uM after 48 hrs by Annexin V-FITC/PI staining based flow cytometry (reference value: 99.4%); type: functional; settings: U-937, 48 h, read-out: Activity
# U-937 [22] = test: Induction of apoptosis in human U937 cells assessed as early apoptotic cells at 10 uM after 48 hrs by Annexin V-FITC/PI staining based flow cytometry (reference value: 0.162%); type: functional
# U-937 [23] = test: Induction of apoptosis in human U937 cells assessed as late apoptotic cells at 10 uM after 48 hrs by Annexin V-FITC/PI staining based flow cytometry (reference value: 0.438%); type: functional
# U-937 [24] = test: Induction of apoptosis in human U937 cells assessed as necrotic cells at 10 uM after 48 hrs by Annexin V-FITC/PI staining based flow cytometry (reference value: 0%); type: functional
# U-937 [25] = test: Induction of apoptosis in human U937 cells assessed as cell death after 48 hrs by Annexin V-FITC/PI staining based flow cytometry; type: functional
# Salmonella typhimurium [26] = test: Genotoxicity in Salmonella typhimurium TA97 at 50 times IC50 by Ames test; type: toxicity; settings: salmonella enterica subsp. enterica serovar typhimurium
# Salmonella typhimurium [27] = test: Genotoxicity in Salmonella typhimurium TA98 at 50 times IC50 by Ames test; type: toxicity; settings: salmonella enterica subsp. enterica serovar typhimurium
# Salmonella typhimurium [28] = test: Genotoxicity in Salmonella typhimurium TA102 at 50 times IC50 by Ames test; type: toxicity; settings: salmonella enterica subsp. enterica serovar typhimurium
# Salmonella typhimurium [29] = test: Genotoxicity in Salmonella typhimurium TA1535 at 50 times IC50 by Ames test; type: toxicity; settings: salmonella enterica subsp. enterica serovar typhimurium
# DNA (cytosine-5)-methyltransferase 1 (Homo sapiens), sequence (P26358 whole entry): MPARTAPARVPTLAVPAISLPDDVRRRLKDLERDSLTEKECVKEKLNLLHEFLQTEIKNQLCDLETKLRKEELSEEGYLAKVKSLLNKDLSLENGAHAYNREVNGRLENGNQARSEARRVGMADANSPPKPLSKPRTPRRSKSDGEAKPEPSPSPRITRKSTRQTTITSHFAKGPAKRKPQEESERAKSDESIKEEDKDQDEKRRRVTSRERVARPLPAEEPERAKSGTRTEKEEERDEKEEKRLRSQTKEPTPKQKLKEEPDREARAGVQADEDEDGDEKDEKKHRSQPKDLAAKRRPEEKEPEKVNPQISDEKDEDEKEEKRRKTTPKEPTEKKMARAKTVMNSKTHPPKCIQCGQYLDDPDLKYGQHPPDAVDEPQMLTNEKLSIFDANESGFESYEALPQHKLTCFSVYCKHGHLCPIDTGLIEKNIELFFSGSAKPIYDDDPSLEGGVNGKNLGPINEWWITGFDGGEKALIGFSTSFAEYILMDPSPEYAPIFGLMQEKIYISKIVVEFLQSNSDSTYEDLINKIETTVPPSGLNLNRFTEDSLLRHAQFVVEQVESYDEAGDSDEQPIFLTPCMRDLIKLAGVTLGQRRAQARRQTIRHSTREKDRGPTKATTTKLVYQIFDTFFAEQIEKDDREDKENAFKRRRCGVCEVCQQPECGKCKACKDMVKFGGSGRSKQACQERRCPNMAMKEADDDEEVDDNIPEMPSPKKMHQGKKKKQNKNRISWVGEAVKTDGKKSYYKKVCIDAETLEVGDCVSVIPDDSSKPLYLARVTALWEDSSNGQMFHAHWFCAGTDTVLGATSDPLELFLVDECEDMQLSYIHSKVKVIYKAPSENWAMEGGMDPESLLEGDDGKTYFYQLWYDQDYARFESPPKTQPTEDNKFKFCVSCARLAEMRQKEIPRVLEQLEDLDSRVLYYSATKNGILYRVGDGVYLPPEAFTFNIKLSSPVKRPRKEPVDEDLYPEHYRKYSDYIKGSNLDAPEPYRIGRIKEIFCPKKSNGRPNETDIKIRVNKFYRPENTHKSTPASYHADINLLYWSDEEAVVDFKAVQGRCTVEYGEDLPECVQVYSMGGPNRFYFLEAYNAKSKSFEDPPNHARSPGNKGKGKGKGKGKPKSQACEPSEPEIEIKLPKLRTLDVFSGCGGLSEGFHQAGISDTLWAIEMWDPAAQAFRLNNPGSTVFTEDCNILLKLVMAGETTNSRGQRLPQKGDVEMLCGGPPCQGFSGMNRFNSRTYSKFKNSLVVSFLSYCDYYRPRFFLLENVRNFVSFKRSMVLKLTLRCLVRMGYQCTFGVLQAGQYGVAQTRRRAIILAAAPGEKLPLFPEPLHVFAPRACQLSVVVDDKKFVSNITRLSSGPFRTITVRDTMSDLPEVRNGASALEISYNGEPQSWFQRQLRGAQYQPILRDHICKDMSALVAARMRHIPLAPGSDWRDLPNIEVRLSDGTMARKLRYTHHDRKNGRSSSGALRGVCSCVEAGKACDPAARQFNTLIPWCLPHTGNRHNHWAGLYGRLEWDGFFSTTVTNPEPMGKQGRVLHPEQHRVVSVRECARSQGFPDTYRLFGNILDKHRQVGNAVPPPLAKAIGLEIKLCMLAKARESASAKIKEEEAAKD
structure (smiles),measurement,setting,value
O=C(/C=C/c1ccc(CCNC(=O)c2cc(C(F)(F)F)ccc2Cl)cc1)NO,inhibition,[1],69.9 to 70%
same,inhibition,[2],23 to 23.4%
same,inhibition,[3],48 to 48.5%
same,IC50,Histone deacetylase 1,56.8 nM
same,IC50,[4],17.4 nM
same,IC50,K562,2850 nM
same,IC50,U-937 [5],1060 nM
same,Activity,U-937 [6],0.452%
same,inhibition,Homo sapiens [7],Dose-dependent effect
same,inhibition,Homo sapiens [8],Dose-dependent effect
same,inhibition,[9],Active
same,inhibition,Homo sapiens [10],Active
same,Activity,U-937 [11],Active
same,Activity,U-937 [12],Active
same,Activity,U-937 [13],Active
same,viability at 2.5 µM,U-937 [14],56%
same,Activity,U-937 [15],12.9%
same,Activity,U-937 [16],30.7%
same,viability at 5 µM,U-937 [17],0.725%
same,Activity,U-937 [18],48.2%
same,Activity,U-937 [19],50.7%
same,Activity,U-937 [20],0.384%
same,viability at 10 µM,U-937 [21],0.784%
same,Activity,U-937 [22],30.1%
same,Activity,U-937 [23],68.3%
same,Activity,U-937 [24],0.846%
same,Activity,U-937 [25],Dose-dependent effect
same,Activity,Salmonella typhimurium [26],Non-Toxic
same,Activity,Salmonella typhimurium [27],Non-Toxic
same,Activity,Salmonella typhimurium [28],Non-Toxic
same,Activity,Salmonella typhimurium [29],Non-Toxic

# From ChEMBL document CHEMBL4033641, “Design, synthesis and anticancer potential of NSC-319745 hydroxamic acid derivatives as DNMT and HDAC inhibitors” (Eur J Med Chem, 2017)
